Six compounds from patent publication US20250074911A1, “MACROCYCLIC BTK INHIBITORS” (Crossfire Oncology Holding B.V., priority 2021, published 2025) can be followed below.

Values joined by “and” are separate entries in the source; they are usually repeats but may differ in a detail not shown here. Equal entries are not always repeated.

The target in one experiment is BTK C481S (Homo sapiens (Human), UniProt Q06187, C481S). Description: Binding kinetics measurements (Surface Plasmon Resonance) on BTK C481S. Particulars: for Kd: binding affinity by Surface Plasmon Resonance (SPR); for Tau (h) BTK C418S (Act): target residence time for BTK C481S, SPR. The procedure, abridged: (§1)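 Kinetic constants came from double-referenced SPR sensorgrams of five ascending compound injections (3.16-316 nM, single cycle) over streptavidin-captured enzyme. Flow was 30 μl/min at 22° C with 1% DMSO. Duplicate ka, kd and KD were geometrically averaged.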

The target in a further experiment is BTK T474S (Homo sapiens (Human), UniProt Q06187, T474S). Description: Binding kinetics measurements (Surface Plasmon Resonance) on BTK T474S. Particulars: for residence time: SPR binding kinetics, BTK T474S, read-out: Tau (h) BTK T474S (Act), target residence time (converted); for Kd: binding affinity by Surface Plasmon Resonance (SPR). The gist of the method:
as §1

The test system of experiment [1] is wt-REC-1 mantle cell lymphoma cells. Description: Cell proliferation assay wt-REC-1 (ATPlite, 72 hours). The experiment is classed as cell-based. The conditions noted are these: 72 h; read-out: IC50 wt-REC-1. The procedure, abridged:
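Luminescent viability read over 72 h, start-of-incubation signal recorded separately to separate growth from cell death. Percentage growth referenced to compound-free 0.3% DMSO wells; IC50 from 4-parameter logistic fit.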
A general note: ATP-based viability assays read luminescence as a measure of living cells.

Experiment [2] relates to wt-TMD8 diffuse large B-cell lymphoma cells. Description: Cell proliferation assay wt-TMD8 (ATPlite, 120 hours). In kind it is cell-based. Particulars: B-cell; wt-TMD8 cells, 120 hours, ATPlite; read-out: IC50 wt-TMD8. The gist of the method: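 Readout is percentage growth from ATPlite 1Step luminescence after 5 days (120 h) compound treatment of wt-TMD8 lymphoma cells (1600/well, RPMI-1640 + 10% FBS). Time-zero signal separates growth inhibition from cell kill; 0.3% DMSO wells without compound define maximal growth.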

The target in another experiment is BTK T474I (Homo sapiens (Human), UniProt Q06187, T474I). Description: Binding kinetics measurements (Surface Plasmon Resonance) on BTK T474I. The conditions noted are these: binding affinity by Surface Plasmon Resonance (SPR). The procedure, abridged:
as §1

In another experiment the target is wt-BTK (Homo sapiens (Human), UniProt Q06187). Description: Binding kinetics measurements (Surface Plasmon Resonance) on wt-BTK. Particulars: for Kd: binding affinity by Surface Plasmon Resonance (SPR); for Tau (h) wt-BTK (Act): target residence time, SPR. The gist of the method:
as §1

The subject of the next experiment is REC-1 T474I cell lines. Description: Cell proliferation assay REC-1 BTK T474I knock-in cells (ATPlite, 72 hours). The experiment is classed as cell-based. The conditions noted are these: Homo sapiens, Rec1; 72 hours; read-out: IC50 REC-1 T474I. The gist of the method:
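REC-1 cells carrying CRISPR knock-in mutant BTK, single-cell cloned and sequence-confirmed, were exposed to compound for 72 h and read by ATPlite luminescence. Percentage growth was calculated against the signal at the start of incubation and against untreated 0.3% DMSO wells as maximum growth.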

The target of another experiment is BTK T316A (Homo sapiens (Human), UniProt Q06187, T316A). Description: Binding kinetics measurements (Surface Plasmon Resonance) on BTK T316A. Particulars: for Kd: binding affinity by Surface Plasmon Resonance (SPR); for Tau (h) BTK T316A (Act): target residence time, SPR. Here is the method: Binding kinetics measurements on wt-BTK, BTK […], BTK […], BTK […] and BTK […] (Surface Plasmon Resonance) Streptavidin-coated chips (Cat. No. BR100531), disposables and maintenance kits for Biacore were purchased from Cytiva (Eindhoven, The Netherlands). […] Remaining streptavidin was blocked with biocytin. Immobilization was performed at 4° C. Subsequent assay steps were conducted at 22° C. After changing buffer to Biacore buffer with 1% (v/v) dimethylsulfoxide (DMSO), a pre-run was performed for a period of at least 30 min at a flow rate of 30 μl/min to obtain a stable surface. The kinetic constants of the compounds were determined with single cycle kinetics with five consecutive injections with an increasing compound concentration with ranges of 3.16-316 nM. […] To circumvent problems of mass transport limitation, a flow rate of 30 μl/min was used. A blank run with the same conditions was performed before the compound was injected. The SPR sensorgrams were analyzed with Biacore Evaluation Software by using a method of double referencing. First the reference channel was subtracted from the channel containing immobilized protein. Subsequently, the reference curve obtained with buffer injections was subtracted. […] Compounds that bound according to an induced fit model were fitted with a two-state reaction model. The kinetic constants (ka, […], KD) of duplicates were geometrically averaged. […] Target residence for an induced fit model was calculated as described (Tummino and Copeland, 2008).

Experiment [3] addresses full-length wt-BTK enzyme (Homo sapiens (Human), UniProt Q06187). Description: Biochemical kinase assay wt-BTK (IMAP). The procedure, abridged: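 Compound and enzyme (final 1.2 nM) were pre-incubated for 1 h at RT, after which the reaction was started with 4 μM ATP plus 50 nM fluorescein-MBP substrate peptide. After 2 h in the dark, the IMAP progressive binding reagent stopped the reaction, and phosphorylation was read by fluorescence polarization.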

The target in experiment [4] is full-length BTK C481S enzyme (Homo sapiens (Human), UniProt Q06187, C481S). Description: Biochemical kinase assay BTK C481S (IMAP). The gist of the method:
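IC50 values come from IMAP fluorescence polarization after quenching with progressive binding solution. The reaction ran 2 h at room temperature in the dark with 1.2 nM full-length C481S enzyme, 7 μM ATP and 50 nM fluorescein-labelled MBP-derived peptide, following a 1 h dark pre-incubation of compound with enzyme.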

BTK T474S, sequence (Q06187 whole entry T474S): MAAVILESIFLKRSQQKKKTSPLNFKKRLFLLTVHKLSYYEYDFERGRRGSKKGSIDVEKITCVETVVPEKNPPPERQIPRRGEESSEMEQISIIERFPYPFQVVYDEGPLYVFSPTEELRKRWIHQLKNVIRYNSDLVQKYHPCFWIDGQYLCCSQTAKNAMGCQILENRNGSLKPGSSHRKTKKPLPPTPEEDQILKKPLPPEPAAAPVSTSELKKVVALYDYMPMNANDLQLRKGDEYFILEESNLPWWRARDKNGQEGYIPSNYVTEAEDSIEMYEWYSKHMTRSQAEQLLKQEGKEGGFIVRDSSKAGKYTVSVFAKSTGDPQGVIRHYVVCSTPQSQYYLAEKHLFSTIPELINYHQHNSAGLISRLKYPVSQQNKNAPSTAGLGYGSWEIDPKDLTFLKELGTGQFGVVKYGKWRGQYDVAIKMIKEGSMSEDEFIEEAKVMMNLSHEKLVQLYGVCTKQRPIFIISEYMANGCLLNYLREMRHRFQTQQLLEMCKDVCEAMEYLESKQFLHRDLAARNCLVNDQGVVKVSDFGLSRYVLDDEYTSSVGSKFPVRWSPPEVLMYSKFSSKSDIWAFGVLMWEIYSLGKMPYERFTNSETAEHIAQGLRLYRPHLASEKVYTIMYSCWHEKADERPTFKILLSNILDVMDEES
full-length BTK C481S enzyme, sequence (Q06187 whole entry C481S): as the sequence (Q06187 whole entry T474S) above, with S474T, C481S counted along it
BTK C481S, sequence (Q06187 whole entry C481S): as the sequence (Q06187 whole entry T474S) above, with S474T, C481S counted along it
wt-BTK, sequence (Q06187 whole entry): as the sequence (Q06187 whole entry T474S) above, with S474T counted along it
full-length wt-BTK enzyme, sequence (Q06187 whole entry): as the sequence (Q06187 whole entry T474S) above, with S474T counted along it
BTK T316A, sequence (Q06187 whole entry T316A): as the sequence (Q06187 whole entry T474S) above, with T316A, S474T counted along it
BTK T474I, sequence (Q06187 whole entry T474I): as the sequence (Q06187 whole entry T474S) above, with S474I counted along it

Broadly, the Kd is a measure of binding affinity in units of concentration. A low value points to tighter binding. The term IC50 denotes the midpoint of a concentration-inhibition curve. As to `CC1NC/C=C/c2cnc(N)c3c(-c4ccc(C(=O)Nc5cc(C(F)(F)F)ccn5)cc4)nn(c23)[C@@H]2CCC[C@H](C2)NC1=O` (single isomer, unassigned) [Example 146], the Kd was below 5 nM on BTK C481S; below 3 nM on BTK T474S; 10 to 50 nM and < 5 nM at BTK T474I; below 5 nM at wt-BTK; below 5 nM on BTK T316A. Besides, the “Tau (h) BTK C418S (Act)” value at BTK C481S turned out to be 5.76 h. In addition, at BTK T474S, the residence time was 2.69 h. Moreover, the IC50 in experiment [1] is below 100 nM; in experiment [2] it was below 100 nM; with REC-1 T474I cell lines, 100 to 500 nM. Also, the “Tau (h) wt-BTK (Act)” value on wt-BTK is 3.88 h. For the same compound, on BTK T316A, the “Tau (h) BTK T316A (Act)” value is listed as 2.12 h.
`C[C@@H]1CCn2nc(-c3ccc(C(=O)Nc4cc(C(F)(F)F)ccn4)cc3)c3c(N)ncc(c32)/C=C/CCCCC(=O)N1` [Example 54]: the Kd is below 5 nM at BTK C481S; below 3 nM at BTK T474S; below 2 nM on BTK T474I; below 5 nM at wt-BTK; below 5 nM at BTK T316A. Further, the residence time on BTK T474S was 4.37 h. Moreover, the IC50 in [1] is below 100 nM; in experiment [2], below 100 nM; in the experiment with REC-1 T474I cell lines it was 100 to 500 nM.
Take `Nc1ncc2n3c(nc(-c4ccc(C(=O)Nc5cc(C(F)(F)F)ccn5)cc4)c13)[C@@H]1CCC[C@H](C1)NC(=O)CCCC/C=C/2` [Example 130]: the IC50 is below 5 nM in experiment [3], below 100 nM in experiment [1], below 100 nM in experiment [2] and below 5 nM in experiment [4]. Also, the Kd was below 5 nM at BTK C481S; below 3 nM at BTK T474S; below 2 nM at BTK T474I; below 5 nM on wt-BTK; below 5 nM on BTK T316A. Moreover, at BTK C481S, the “Tau (h) BTK C418S (Act)” value is 3.83 h. Moreover, at BTK T474S, the residence time is 1.64 h. The “Tau (h) wt-BTK (Act)” value on wt-BTK is on record as 2.86 h. For the same compound, the “Tau (h) BTK T316A (Act)” value at BTK T316A was 2.22 h.
Take `Nc1ncc2n3c(nc(-c4ccc(C(=O)Nc5cc(C(F)(F)F)ccn5)cc4)c13)[C@@H]1CCC[C@H](C1)NC(=O)CCC/C=C/2` [Example 132]: the 50% inhibitory concentration (IC50) in [3] was below 5 nM; in [1], 100 to 1000 nM; in experiment [4], below 5 nM; in the experiment with REC-1 T474I cell lines, 500 to 10000 nM. The dissociation constant Kd was below 5 nM at BTK C481S; below 3 nM on BTK T474S; below 2 nM on BTK T474I; below 5 nM on wt-BTK; below 5 nM at BTK T316A. Further, the “Tau (h) BTK C418S (Act)” value on BTK C481S is listed as 3.96 h. The residence time on BTK T474S is 3.04 h. Also, on wt-BTK, the “Tau (h) wt-BTK (Act)” value is listed as 2.75 h. The “Tau (h) BTK T316A (Act)” value at BTK T316A is 1.58 h.
Take `C[C@@H]1CCn2nc(-c3ccc(C(=O)Nc4cc(C(F)(F)F)ccn4)cc3)c3c(N)ncc(c32)/C=C/CSCC(=O)N1` [Example 61]: the IC50 in [3] was below 5 nM; in experiment [1], below 100 nM; in experiment [2], below 100 nM; in experiment [4], below 5 nM. The Kd at BTK C481S was below 5 nM; at BTK T474S it was below 3 nM; at BTK T474I, below 2 nM; on wt-BTK, below 5 nM; at BTK T316A, below 5 nM. In addition, on BTK C481S, the “Tau (h) BTK C418S (Act)” value worked out at 7.19 h. The residence time on BTK T474S was 2.48 h. In addition, the “Tau (h) wt-BTK (Act)” value on wt-BTK was 4.95 h. For the same compound, the “Tau (h) BTK T316A (Act)” value at BTK T316A stood at 1.85 h.
In the case of `Nc1ncc2c3c1c(-c1ccc(C(=O)Nc4cc(C(F)(F)F)ccn4)cc1)nn3[C@@H]1CCC[C@H](C1)C(=O)NCCCCCCC2` [Example 115], the IC50 in [3] was below 5 nM; in [1] it was 100 to 1000 nM; in [4] it was below 5 nM; in the experiment with REC-1 T474I cell lines, 100 to 500 nM. The Kd at BTK C481S was below 5 nM; on BTK T474S, below 3 nM; on BTK T474I, 10 to 50 nM and < 5 nM; on wt-BTK, below 5 nM; on BTK T316A, below 5 nM. The “Tau (h) BTK C418S (Act)” value on BTK C481S came to 6.25 h. Further, the residence time at BTK T474S was 3.89 h. Besides, the “Tau (h) wt-BTK (Act)” value on wt-BTK is recorded as 5.09 h. Further, at BTK T316A, the “Tau (h) BTK T316A (Act)” value was determined as 2.96 h.
